The values below come from patent US11931322B2, “Solubilizate with curcumin and optionally at least one other active substance” (priority 2017, dated 2024).

Type in all cases: in vivo, Wistar rats
Assay [1] deals with total antioxidant capacity (TAC). The assay is described as follows: Total antioxidant capacity (TAC) in the serum of arthritic rats. Conditions: for TAC: serum of arthritic rats, n=8, mean ± SEM. As to the method: (§1) Prof. Dr. […] from the University of Cairo, Faculty of Pharmacy at the Institute for Pharmacology, performed studies on the anti-inflammatory effect of curcumin and combinations of curcumin with Boswellia or xanthohumol, in each case in the native form and in the solubilized form according to the disclosure. Anti-inflammatory markers and antioxidant capacity were determined. Female Wistar rats with a body weight between 150 and 200 g were exposed to adjuvant induced arthritis according to Pearson et al. (1956). At day 0, the animals were administered 0.1 ml of Freund's Adjuvant (FCA) in the right hind paw, by subplantar injection. The animals were randomly divided into 12 groups of 8 animals each. All extracts or solubilizates were administered orally once daily from day 0 to day 21 following the vaccination with the adjuvant. After day 21, the animals were killed and serum samples were prepared and stored at -80° C. Measurements were made of myeloperoxidase (MPO), C-reactive protein (CRP), total antioxidant capacity (TAC), and thiobarbituratic acid reactive substances (TBARS). Oxidative stress is one of the major factors contributing to joint destruction in rheumatoid arthritis (RA). An increase in the production of so-called “reactive oxygen species (ROS)” leads to a reduced supply of endogenous antioxidants and ultimately results in the destruction of cells. The neutrophil granulocytes released in the rheumatoid joint produce free oxygen radicals which cause increased formation of lipid peroxides manifesting in an increase in serum TBARS. Therefore, an increase in antioxidant status represented by an increase in TAC can be used as an indication of protection against the development of degenerative inflammatory processes. There is an inverse relationship between the levels of TAC and TBARS, a high level of antioxidant capacity TAC corresponds to a low TBARS concentration. The table contains data on the effect of curcumin and Boswellia in native and in solubilized form, administered either alone or in combination with diclofenac in a dose of 3 mg per kg body weight once daily for 21 days, on the antioxidant capacity TAC and the thiobarbituric acid reactive substances TBARS in the serum of arthritic rats (n=8). Indicated are mean values±standard error of the mean (SEM).

The test system of assay [2] is thiobarbituric acid reactive substances (TBARS). Put plainly: Thiobarbituric acid reactive substances (TBARS) in the serum of arthritic rats. Conditions: for TBARS: serum of arthritic rats, n=8, mean ± SEM. As to the method: as §1
For a further assay, the system named is C-reactive protein (CRP). The assay is described as follows: Serum C-reactive protein (CRP) in adjuvant-induced arthritic rats. Conditions: 5 and 10 mg/kg, FIG. 1a. The procedure:
(§2) Prof. Dr. […] from the University of Cairo, Faculty of Pharmacy at the Institute for Pharmacology, performed studies on the anti-inflammatory effect of curcumin and combinations of curcumin with Boswellia or xanthohumol, in each case in the native form and in the solubilized form according to the disclosure. Anti-inflammatory markers and antioxidant capacity were determined. Female Wistar rats with a body weight between 150 and 200 g were exposed to adjuvant induced arthritis according to Pearson et al. (1956). At day 0, the animals were administered 0.1 ml of Freund's Adjuvant (FCA) in the right hind paw, by subplantar injection. The animals were randomly divided into 12 groups of 8 animals each. Group 1 was the control group. Group 2 received diclofenac as a reference drug in a dose of 3 mg/kg body weight. Group 3 received native curcumin in a dose of 5 mg/kg body weight. Group 4 received curcumin solubilized according to the disclosure in a dose of 5 mg/kg body weight. Group 5 received native curcumin in a dose of 10 mg/kg body weight, and Group 6 received curcumin solubilized in the same dose. Group 7 received native xanthohumol in a dose of 5 mg/kg body weight, and Group 8 received solubilized xanthohumol in the same dose. Group 9 received a mixture of native curcumin in a dose of 5 mg/kg body weight and native Boswellia extract in a dose of 10 mg/kg body weight. […]

Another assay deals with myeloperoxidase (MPO). Put plainly: Serum myeloperoxidase (MPO) in adjuvant-induced arthritic rats. Conditions: both dosages (5 and 10 mg/kg), FIG. 2. As to the method: as §2
[3] abbreviates: 10 mg/kg once daily for 21 days.
Where [4] appears, read: arthritic rats, both dosages considered.

The structures appear in SMILES notation.

As to `O=C(O)Cc1ccccc1Nc1c(Cl)cccc1Cl` [Diclofenac, diclofenac], in assay [1] (3 mg/kg once daily for 21 days), the TAC was found to be 82.08 ± 2.96 nmol/µL. Also, in assay [2] (3 mg/kg once daily for 21 days), the TBARS came out at 7.93 ± 0.84 nmol/L.

Take `COc1cc(/C=C/C(=O)CC(=O)/C=C/c2ccc(O)c(OC)c2)ccc1O` [Native curcumin, curcumin]: the “effect on rat serum CRP levels (in words)” value in the assay with C-reactive protein (CRP) is on record as “inhibited rat serum CRP levels in a dose-dependent manner”. Further, in the assay on myeloperoxidase (MPO), the “effect on MPO concentration (in words)” value is “no effect on the MPO levels”. Moreover, the TAC came to 60.31 ± 3.25 nmol/µL in assay [1] (5 mg/kg once daily for 21 days) and 68.41 ± 1.09 nmol/µL in assay [1] (setting [3]). Moreover, the “effect on TAC (in words)” value in assay [1] (setting [4]) is “no significant effect”. Moreover, the TBARS in assay [2] (5 mg/kg once daily for 21 days) was determined as 11.64 ± 0.39 nmol/L; in assay [2] (setting [3]), 13.18 ± 0.46 nmol/L. Besides, in assay [2] (setting [4]), the “effect on the TBARS level (in words)” value is reported as “no significant effect”.
